Measurements as given in patent US11014904B2, “1,2,4-triazine-3-amine derivative, preparation method therefor, and use thereof in medicine” (Jiangsu Hengrui Medicine Co., Ltd., priority 2017, dated 2021).

Key:
[1] = target: T1, adenosine A2b receptor (A2bR) (Homo sapiens, UniProt P29275); assay: Inhibition of the adenosine A2b receptor cAMP signaling pathway in CHO-K1/A2bR cells (HTRF); type: cell-based; settings: ethyl carbazole 1 μM, Table 2
T1 construct: expressed in transfected cells; host or cells: CHO-K1
T1 sequence (P29275 1-332): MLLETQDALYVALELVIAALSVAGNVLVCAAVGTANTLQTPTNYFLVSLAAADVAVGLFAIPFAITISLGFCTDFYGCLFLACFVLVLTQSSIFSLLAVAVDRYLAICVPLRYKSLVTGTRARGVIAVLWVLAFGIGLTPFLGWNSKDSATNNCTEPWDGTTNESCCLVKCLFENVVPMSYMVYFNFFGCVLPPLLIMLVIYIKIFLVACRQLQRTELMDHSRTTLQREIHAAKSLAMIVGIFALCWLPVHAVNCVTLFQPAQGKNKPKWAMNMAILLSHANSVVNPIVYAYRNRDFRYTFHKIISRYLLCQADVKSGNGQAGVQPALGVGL
Source text: (§1) Determination of the inhibition activity of the compounds of the present invention on the adenosine A2a receptor (A2aR) cAMP signaling pathway, the adenosine A2b receptor (A2bR) cAMP signaling pathway, the adenosine A1 receptor (A1R) cAMP signaling pathway and the adenosine A3 receptor (A3R) cAMP signaling pathway.
(§2) The inhibition activity of the compounds of the present invention on the adenosine A2a receptor (A2aR) cAMP signaling pathway, the adenosine A2b receptor cAMP signaling pathway, the adenosine A1 receptor cAMP signaling pathway and the adenosine A3 receptor cAMP signaling pathway was determined by the following method. The experimental method is briefly described as follows:
2.2 Adenosine A2b Receptor
CHO-K1/A2bR cells were cultured in DMEM/F12 medium containing 10% fetal bovine serum and 1 mg/ml G418. The cells were digested with the cell separation buffer during the experiment. The cells were resuspended in the balanced salt buffer containing 20 mM HEPES and 0.1% bovine serum albumin and counted, and the cell density was adjusted to 10^6 cells/ml. In the 384-well plate, each well was added with 5 μl of cell suspension, and 2.5 μl of test compound (4× concentration) formulated with the balanced salt buffer containing 20 mM HEPES, 0.1% bovine serum albumin, 54 μM rolipram and 2.7 U/ml adenosine deaminase, and the plate was incubated at room temperature for 30 minutes. Each well was then added with 2.5 μl of […] (4× concentration) (Torcis, 1691/10) formulated with the balanced salt buffer containing 20 mM HEPES, 0.1% bovine serum albumin, 54 μM rolipram and 2.7 U/ml adenosine deaminase, and the plate was incubated at room temperature for 30 minutes. The final concentrations of the compounds were: 100000, 10000, 1000, 100, 10, 1, 0.1 and 0 nM. The final concentration of […] was 1 μM. Intracellular cAMP concentration was detected with the cAMP dynamic 2 kit. cAMP-d2 and Anti-cAMP-Eu-Cryptate were diluted respectively with the cAMP lysis buffer at a ratio of 1:4. Each well was added with 5 μl of diluted cAMP-d2, followed by addition of 5 μl of diluted Anti-cAMP-Eu-Cryptate, and the plate was incubated at room temperature in the dark for 1 hour. The HTRF signal values were read by the PHERAstar multi-function microplate reader.

[2] = target: T2, adenosine A2a receptor (A2aR) (Homo sapiens, UniProt P29274); assay: Inhibition of the adenosine A2a receptor cAMP signaling pathway in CHO-K1/A2aR cells (HTRF); type: cell-based; settings: CHO-K1/A2aR cells, cAMP, NECA 20 nM; Table 1
T2 construct: expressed in transfected cells; host or cells: CHO-K1
Source text: as §1, §2
2.1 Adenosine A2a receptor
CHO-K1/A2aR cells were cultured in DMEM/F12 medium containing 10% fetal bovine serum and 800 μg/ml bleomycin. The cells were digested with the cell separation buffer during the experiment. The cells were resuspended in the balanced salt buffer containing 20 mM HEPES and 0.1% bovine serum albumin and counted, and the cell density was adjusted to 10^6 cells/ml. In the 384-well plate, each well was added with 5 μl of cell suspension, and 2.5 μl of test compound (4× concentration) formulated with the balanced salt buffer containing 20 mM HEPES, 0.1% bovine serum albumin, 54 μM rolipram and 2.7 U/ml adenosine deaminase, and the plate was incubated at room temperature for 30 minutes. Each well was then added with 2.5 μl of […] (4× concentration) formulated with the balanced salt buffer containing 20 mM HEPES, 0.1% bovine serum albumin, 54 μM rolipram and 2.7 U/ml adenosine deaminase, and the plate was incubated at room temperature for 30 minutes. The final concentrations of the compounds were: 10000, 2000, 400, 80, 16, 3.2, 0.64, 0.128, 0.0256, 0.00512, and 0.001024 nM. The final concentration of […] was 20 nM. Intracellular cAMP concentration was detected with the cAMP dynamic 2 kit. cAMP-d2 and Anti-cAMP-Eu-Cryptate were diluted respectively with the cAMP lysis buffer at a ratio of 1:4. Each well was added with 5 μl of diluted cAMP-d2, followed by addition of 5 μl of diluted Anti-cAMP-Eu-Cryptate, and the plate was incubated at room temperature in the dark for 1 hour. The HTRF signal values were read by the PHERAstar multi-function microplate reader.

T2 sequence (P29274 whole entry): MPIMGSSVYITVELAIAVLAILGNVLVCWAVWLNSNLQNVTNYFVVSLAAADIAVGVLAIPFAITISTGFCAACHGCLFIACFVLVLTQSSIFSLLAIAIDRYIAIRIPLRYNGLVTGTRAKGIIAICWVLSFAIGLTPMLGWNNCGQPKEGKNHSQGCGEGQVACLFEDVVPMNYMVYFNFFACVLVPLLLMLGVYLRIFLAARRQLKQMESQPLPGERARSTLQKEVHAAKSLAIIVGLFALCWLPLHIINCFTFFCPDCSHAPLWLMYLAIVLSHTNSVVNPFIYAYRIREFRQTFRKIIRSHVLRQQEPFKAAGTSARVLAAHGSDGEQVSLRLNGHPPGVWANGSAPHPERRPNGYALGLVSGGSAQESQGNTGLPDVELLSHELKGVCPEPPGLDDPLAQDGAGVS

SMILES	IC50 [1] [nM]	IC50 [2] [nM]
Nc1nnc(-c2cc(Cl)c3ncccc3c2)c(-c2ccccc2)n1 [Example 4, 6-(8-Chloroquinolin-6-yl)-5-phenyl-1,2,4-triazin-3-amine]	4	0.7
COc1ccnc2ccc(-c3nnc(N)nc3-c3ccccc3)cc12 [Example 23, 6-(4-Methoxyquinolin-6-yl)-5-phenyl-1,2,4-triazin-3-amine]	17	0.4
Cc1ccc(-c2nc(N)nnc2-c2cc(C)c3ncccc3c2)o1 [Example 5, 5-(5-Methylfuran-2-yl)-6-(8-methylquinolin-6-yl)-1,2,4-triazin-3-amine]	46	0.4
COc1cc(-c2nnc(N)nc2-c2ccccc2)cc2cccnc12 [Example 25, 6-(8-Methoxyquinolin-6-yl)-5-phenyl-1,2,4-triazin-3-amine]	4	1.5

Further lines, results first:

IC50 [1] [nM]	IC50 [2] [nM]	SMILES
18	1.6	Cc1ncnc2ccc(-c3nnc(N)nc3-c3ccc(Cl)cc3)cc12 [Example 46, 5-(4-Chlorophenyl)-6-(4-methylquinazolin-6-yl)-1,2,4-triazin-3-amine]
3	0.1	Cc1ccnc2ccc(-c3nnc(N)nc3-c3ccccc3)cc12 [Example 14, 6-(4-Methylquinolin-6-yl)-5-phenyl-1,2,4-triazin-3-amine]
